What all share (type): cell-based
Test [1] addresses T1, Nurr1 (Homo sapiens, UniProt P43354).
T1 construct: 3 types of plasmid DNA, including DNA containing Nurr1-LBD and DNA with β-galactosidase, were transfected into BE(2)C cells; expressed in transfected cells; host or cells: BE(2)C cells
Nature of the test: Nurr1 activity, luciferase reporter analysis in transfected BE(2)C cells. The settings on record: for Nurr1 activity (luciferase), multiple of 0.1% DMSO control: BE(2)C cells, 20 hours; for Nurr1 activation (in words): no concentration stated. An excerpt: As in Example 2, Nurr1 activity according to the concentration of the diterpene isolated from the extract of Daphne genkwa was confirmed through luciferase analysis.
Specifically, after synthesizing a vector in which the gene having the nucleotide sequence (5′-CTCGGAGGACAGTACTCCG-3 SEQ ID NO:1) to which the GLA4 gene can bind is repeated 8 times to the reporter gene, luciferase, is synthesized, 3 types of plasmid DNA, including DNA containing Nurr1-LBD and DNA with β-galactosidase, were transfected into BE(2)C cells. After 6 hours, the compounds 1 to 10 separated in Example 2 were treated according to the concentrations in Table 1 below. The cells thus treated were cultured in a 5% carbon dioxide incubator at 37° C. for 20 hours, and then luciferase analysis was performed. As a control, 0.1% DMSO was used, and at this time, the activity was increased by multiple, and Amodiaquine was used as a positive control.
(In general: A reporter such as luciferase makes a cellular process visible.)

Test [2] deals with nitric oxide production in microglia BV-2 cells. Nature of the test: Inhibition of nitric oxide production in LPS-treated microglia BV-2 cells (Griess reagent). The settings on record: for Inhibition of nitric oxide production (in words): microglia BV-2 cells. An excerpt: The death of cranial nerve cells due to an inflammatory reaction in a microglia cell has been reported as one of the main causes of degenerative brain diseases such as dementia and Parkinson's disease. (Sarkar S et al., Neurotoxicology, 44, 250-262 (2014); Bower J H et al., Neurology, 67, 494-496 (2006)). Accordingly, the inhibition activity on nitric oxide production, a representative inflammatory factor, was investigated for the compounds isolated from Example 2 in a microglia. Specifically, microglia BV-2 cells were put into a 96-well plate at 5×10^4 cells/well, and cultured for 2 days, followed by incubation with LPS ([…]) for 24 hours with the compound isolated in Example 2 above. The culture supernatant was measured for absorbance at 540 nm using the Griess reagent to quantify nitrite to investigate the amount of nitric oxide production. Minocyline was used as a positive control.

Test [3] deals with T1, Nurr1. Nature of the test: Nurr1 activity, luciferase reporter analysis in transfected BE(2)C cells.
Setting [4] is: Mus musculus, BV-2 cells, LPS 24 hours, nitrite by Griess reagent, read-out: IC50, inhibition of nitric oxide production (Table 4).
The mark [5] stands for this setting: High concentration = 10 μM (Table 1).
Setting [6] is: Low concentration = 0.1 μM (Table 1).
Where [7] appears, read: Mid concentration = 1 μM (Table 1).
Where [8] appears, read: BV-2 cells, LPS 24 hours, nitrite by Griess reagent, read-out: IC50, inhibition of nitric oxide production (Table 5).

Read-outs that look alike come from different tables or passages of the source.

The results in this text go back to patent US12226395B2, “Composition for preventing or treating neurodegenerative diseases, containing diterpene-based compound” (KOREA RESEARCH INSTITUTE OF BIOSCIENCE AND BIOTECHNOLOGY, priority 2017, dated 2025).

T1 sequence (P43354 360-595 limits assumed): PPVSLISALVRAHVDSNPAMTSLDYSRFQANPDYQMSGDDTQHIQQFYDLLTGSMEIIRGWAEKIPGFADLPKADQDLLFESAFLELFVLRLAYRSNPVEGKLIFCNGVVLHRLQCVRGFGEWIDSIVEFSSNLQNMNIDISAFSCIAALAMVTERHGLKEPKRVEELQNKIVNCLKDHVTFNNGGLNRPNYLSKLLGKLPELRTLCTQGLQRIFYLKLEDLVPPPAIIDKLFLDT

On to `C=C(C)[C@@]12O[C@@]3(c4ccccc4)O[C@@H]1C1[C@@H]4O[C@]4(CO)[C@@H](O)[C@]4(O)C(=O)C(C)=CC4[C@@]1(O3)[C@H](C)[C@H]2OC(=O)c1ccccc1` (stereo partly drawn) [Formula 2, (2S,3aR,3cS,4aR,5S,5aS,8bR,9R,10R,10aS)-5,5a-dihydroxy-4a-(hydroxymethyl)-7,9-dimethyl-6-oxo-2-phenyl-10a-(prop-1-en-2-yl)-3a,3b,3c,4a,5,5a,8a,9,10,10a-decahydro-6H-2,8b-epoxyoxireno[2″,3″:6′,7′]azuleno[5′,4′:3,4]benzo[1,2-d][1,3]dioxol-10-yl benzoate], for which the “Nurr1 activity (luciferase), multiple of 0.1% DMSO control” value (“Nurr1 activity … of 0.1% DMSO control” below) on Nurr1 [1] (High concentration = 1 μM (Table 1)) is 1.9; at Nurr1 [1] (Low concentration = 0.01 μM (Table 1)) it was 2.1; at Nurr1 [1] (Mid concentration = 0.1 μM (Table 1)), 2.2. For the same compound, the results for the “Nurr1 activation (in words)” value at Nurr1 [1] and at Nurr1 [3] (0.01 μM) were “better effect of increasing Nurr1 activity” and “excellent effect of Nurr1 activity”, respectively. Further, the IC50 (as a rule, the concentration at which inhibition is half-maximal) in test [2] (setting [4]) is 0.06 ± 0.02 µM. For the same compound, the “Inhibition of nitric oxide production (in words)” value in test [2] was “superior inhibition activity on nitric oxide production”.

For `C=C(C)[C@]12C[C@@H](C)[C@@]34O[C@](c5ccccc5)(O[C@@H]1C3[C@@H]1O[C@]1(CO)[C@@H](O)[C@@]1(O)C4C[C@H](C)[C@@H]1O)O2` (stereo partly drawn) [Formula 8, (2S,3aR,3cS,4aR,5S,5aR,6S,7S,8bR,9R,10aR)-4a-(hydroxymethyl)-7,9-dimethyl-2-phenyl-10a-(prop-1-en-2-yl)dodecahydro-5aH-2,8b-epoxyoxireno[2″,3″:6′,7′]azuleno[5′,4′:3,4]benzo[1,2-d][1,3]dioxole-5,5a,6-triol], the “Nurr1 activity … of 0.1% DMSO control” value came out at 1.6 at Nurr1 [1] (setting [5]), 1.7 at Nurr1 [1] (setting [6]) and 2.0 on Nurr1 [1] (setting [7]). In addition, the “Nurr1 activation (in words)” value on Nurr1 [1] is “better effect of increasing Nurr1 activity”. Moreover, the IC50 in test [2] (setting [4]) was found to be 1.22 ± 0.13 µM.

Consider `C=C(C)[C@]12C[C@@H](C)[C@@]34O[C@](c5ccccc5)(O[C@@H]1C3[C@@H]1O[C@]1(CO)[C@@H](O)[C@]1(O)C(=O)[C@@H](C)CC41)O2` (stereo partly drawn) [Formula 9, (2S,3aR,3cS,4aR,5S,5aS,7S,8bR,9R,10aR)-5,5a-dihydroxy-4a-(hydroxymethyl)-7,9-dimethyl-2-phenyl-10a-(prop-1-en-2-yl)dodecahydro-6H-2,8b-epoxyoxireno[2″,3″:6′,7′]azuleno[5′,4′:3,4]benzo[1,2-d][1,3]dioxol-6-one], for which the “Nurr1 activity … of 0.1% DMSO control” value is on record as 1.5 at Nurr1 [1] (setting [5]), 1.7 at Nurr1 [1] (setting [6]) and 2.4 at Nurr1 [1] (setting [7]). Moreover, in test [2] (setting [4]), the concentration for half-maximal inhibition (IC50) worked out at 1.6 ± 0.37 µM.

In the case of `C=C(C)[C@@]12O[C@@]3(/C=C/C=C/CCCCC)O[C@@H]1[C@@H]1[C@@H]4O[C@]4(CO)[C@@H](O)[C@]4(O)C(=O)C(C)=C[C@H]4[C@@]1(O3)[C@H](C)[C@H]2OC(C)=O` [compound 13, yuanhuadine], the “Nurr1 activation (in words)” value on Nurr1 [1] is given as “better effect of increasing Nurr1 activity”; on Nurr1 [3] (0.003 μM), “activated Nurr1”; on Nurr1 [3] (0.03 μM) it was “significantly activates Nurr1”. The IC50 in test [2] (setting [8]) worked out at 1.8 µM. The “Nurr1 activity (Table 3), relative to control treatment” value at Nurr1 [3] (0.003 μM) is listed as 1.23 ± 0.09; on Nurr1 [3] (0.01 μM) it was 1.35 ± 0.28; on Nurr1 [3] (0.03 μM) it was “*1.47 ± 0.17”; on Nurr1 [3] (0.1 μM), “*1.42 ± 0.14”; on Nurr1 [3] (0.3 μM), “*1.65 ± 0.2”; at Nurr1 [3] (1 μM), “**1.47 ± 0.02”.

In the case of `CCC/C=C/C=C/C=C/C(=O)O[C@@H]1[C@@H](C)[C@@]2(O)C(C=C(CO)C[C@]3(O)C(=O)C(C)=CC23)C2C(C)(C)[C@@]21OC(C)=O` (stereo partly drawn) [compound 16, (4aR,7bS,8R,9R,9aS)-9a-acetoxy-4a,7b-dihydroxy-3-(hydroxymethyl)-1,1,6,8-tetramethyl-5-oxo-1a,1b,4,4a,5,7a,7b,8,9,9a-decahydro-1H-cyclopropa[3,4]benzo[1,2-e]azulen-9-yl (2E,4E,6E)-deca-2,4,6-trienoate], the “Nurr1 activation (in words)” value is “better effect of increasing Nurr1 activity” at Nurr1 [1] and “significantly activates Nurr1” on Nurr1 [3] (0.03 μM). In addition, the concentration for half-maximal inhibition (IC50) in test [2] (Mus musculus, BV-2, 24 h, read-out: IC50, inhibition of nitric oxide production (Table 5)) worked out at 1.78 µM. Besides, the “Nurr1 activity (Table 3), relative to control treatment” value on Nurr1 [3] (0.03 μM) is given as “*1.42 ± 0.15”; at Nurr1 [3] (0.1 μM), “*1.68 ± 0.43”; at Nurr1 [3] (0.3 μM), “*1.82 ± 0.51”; on Nurr1 [3] (1 μM) it was “**1.53 ± 0.07”.

As for yuanhuatine [compound 14], the figures for the “Nurr1 activation (in words)” value at Nurr1 [1], at Nurr1 [3] (0.003 μM) and on Nurr1 [3] (0.03 μM) were “better effect of increasing Nurr1 activity”, “activated Nurr1” and “significantly activates Nurr1”, respectively. The IC50 in test [2] (setting [8]) turned out to be 1.03 µM. The “Inhibition of nitric oxide production (in words)” value in test [2] is given as “better inhibition activity on nitric oxide production”. For the same compound, the “Nurr1 activity (Table 3), relative to control treatment” value on Nurr1 [3] (0.003 μM) is 1.03 ± 0.15; on Nurr1 [3] (0.01 μM), 0.94 ± 0.04; at Nurr1 [3] (0.03 μM) it was “*1.63 ± 0.18”; at Nurr1 [3] (0.1 μM), “**1.68 ± 0.11”; at Nurr1 [3] (0.3 μM) it was “**1.62 ± 0.11”; on Nurr1 [3] (1 μM) it was “*1.67 ± 0.32”.
